From the NIST ThermoML archive (doi:10.1021/je9010568)

Columns and labels:
[1] = Liquid
[2] = φn = volume fraction of the nth substance listed; conditions: Liquid, φ1 = 0.55

OCCO [1,2-ethanediol]
[1]
Conditions	specific volume [m3/kg]
273.15 K, 100 kPa, Vibrating tube method	0.0008871
274.14 K, 100 kPa, Vibrating tube method	0.0008876
275.14 K, 100 kPa, Vibrating tube method	0.0008882
276.15 K, 100 kPa, Vibrating tube method	0.0008887
277.15 K, 100 kPa, Vibrating tube method	0.0008893
278.15 K, 100 kPa, Vibrating tube method	0.0008898
279.15 K, 100 kPa, Vibrating tube method	0.0008904
280.15 K, 100 kPa, Vibrating tube method	0.0008909
281.15 K, 100 kPa, Vibrating tube method	0.0008915
282.15 K, 100 kPa, Vibrating tube method	0.000892
283.15 K, 100 kPa, Vibrating tube method	0.0008926
284.15 K, 100 kPa, Vibrating tube method	0.0008931
285.15 K, 100 kPa, Vibrating tube method	0.0008937
286.15 K, 100 kPa, Vibrating tube method	0.0008942
287.15 K, 100 kPa, Vibrating tube method	0.0008948
288.09 K, 99800 kPa, Bellows volumetry	0.0008687
288.12 K, 348700 kPa, Bellows volumetry	0.0008241
288.15 K, 100 kPa, Vibrating tube method	0.0008954
288.15 K, 299700 kPa, Bellows volumetry	0.0008313
288.15 K, 349400 kPa, Bellows volumetry	0.0008238
288.16 K, 100 kPa, Vibrating tube method	0.0008954
288.17 K, 150000 kPa, Bellows volumetry	0.0008579
288.17 K, 248800 kPa, Bellows volumetry	0.0008395
288.17 K, 298500 kPa, Bellows volumetry	0.0008314
288.17 K, 350400 kPa, Bellows volumetry	0.0008236
288.18 K, 48900 kPa, Bellows volumetry	0.0008815
288.18 K, 99800 kPa, Bellows volumetry	0.0008684
288.18 K, 149400 kPa, Bellows volumetry	0.0008577
288.18 K, 198100 kPa, Bellows volumetry	0.0008485
288.18 K, 299200 kPa, Bellows volumetry	0.0008312
288.19 K, 49200 kPa, Bellows volumetry	0.0008811
288.19 K, 249300 kPa, Bellows volumetry	0.0008392
288.2 K, 248600 kPa, Bellows volumetry	0.0008396
288.21 K, 100 kPa, Vibrating tube method	0.0008954
288.21 K, 49000 kPa, Bellows volumetry	0.0008815
288.21 K, 199700 kPa, Bellows volumetry	0.0008479
288.22 K, 100 kPa, Vibrating tube method	0.0008954
288.23 K, 149400 kPa, Bellows volumetry	0.000858
288.24 K, 99600 kPa, Bellows volumetry	0.0008688
288.24 K, 199700 kPa, Bellows volumetry	0.0008482
289.15 K, 100 kPa, Vibrating tube method	0.0008959
290.15 K, 100 kPa, Vibrating tube method	0.0008965
291.15 K, 100 kPa, Vibrating tube method	0.000897
292.15 K, 100 kPa, Vibrating tube method	0.0008976
293.15 K, 100 kPa, Vibrating tube method	0.0008982
294.15 K, 100 kPa, Vibrating tube method	0.0008987
295.15 K, 100 kPa, Vibrating tube method	0.0008993
296.15 K, 100 kPa, Vibrating tube method	0.0008998
297.15 K, 100 kPa, Vibrating tube method	0.0009004
298.16 K, 100 kPa, Vibrating tube method	0.000901
299.16 K, 100 kPa, Vibrating tube method	0.0009016
300.16 K, 100 kPa, Vibrating tube method	0.0009021
301.16 K, 100 kPa, Vibrating tube method	0.0009027
302.16 K, 100 kPa, Vibrating tube method	0.0009033
303.15 K, 100 kPa, Vibrating tube method	0.0009038
304.16 K, 100 kPa, Vibrating tube method	0.0009044
305.15 K, 100 kPa, Vibrating tube method	0.000905
306.15 K, 100 kPa, Vibrating tube method	0.0009056
307.15 K, 100 kPa, Vibrating tube method	0.0009061
308.15 K, 100 kPa, Vibrating tube method	0.0009067
309.15 K, 100 kPa, Vibrating tube method	0.0009073
310.15 K, 100 kPa, Vibrating tube method	0.0009079
311.15 K, 100 kPa, Vibrating tube method	0.0009085
312.15 K, 100 kPa, Vibrating tube method	0.0009091
313.15 K, 100 kPa, Vibrating tube method	0.0009097

CC(O)CO (centres undefined) [1,2-propanediol] + O
[2]
Conditions	specific volume [m3/kg]
273.15 K, 100 kPa, Vibrating tube method	0.0009499
274.15 K, 100 kPa, Vibrating tube method	0.0009505
275.15 K, 100 kPa, Vibrating tube method	0.000951
276.15 K, 100 kPa, Vibrating tube method	0.0009516
277.15 K, 100 kPa, Vibrating tube method	0.0009521
278.15 K, 100 kPa, Vibrating tube method	0.0009527
279.15 K, 100 kPa, Vibrating tube method	0.0009533
280.15 K, 100 kPa, Vibrating tube method	0.0009539
281.15 K, 100 kPa, Vibrating tube method	0.0009544
282.15 K, 100 kPa, Vibrating tube method	0.000955
283.15 K, 100 kPa, Vibrating tube method	0.0009556
284.15 K, 100 kPa, Vibrating tube method	0.0009562
285.16 K, 100 kPa, Vibrating tube method	0.0009568
286.16 K, 100 kPa, Vibrating tube method	0.0009574
287.16 K, 100 kPa, Vibrating tube method	0.0009579
287.99 K, 198800 kPa, Bellows volumetry	0.0009078
288 K, 100100 kPa, Bellows volumetry	0.0009305
288.03 K, 49500 kPa, Bellows volumetry	0.0009439
288.04 K, 148900 kPa, Bellows volumetry	0.0009188
288.11 K, 248600 kPa, Bellows volumetry	0.0008977
288.11 K, 298400 kPa, Bellows volumetry	0.0008885
288.12 K, 49600 kPa, Bellows volumetry	0.0009432
288.12 K, 198700 kPa, Bellows volumetry	0.000907
288.12 K, 348400 kPa, Bellows volumetry	0.0008794
288.13 K, 100 kPa, Vibrating tube method	0.0009585
288.13 K, 98100 kPa, Bellows volumetry	0.0009301
288.13 K, 148600 kPa, Bellows volumetry	0.0009182
288.16 K, 100 kPa, Vibrating tube method	0.0009585
288.22 K, 249300 kPa, Bellows volumetry	0.000897
288.3 K, 100900 kPa, Bellows volumetry	0.0009295
288.31 K, 149300 kPa, Bellows volumetry	0.0009178
288.31 K, 201100 kPa, Bellows volumetry	0.0009066
288.31 K, 300500 kPa, Bellows volumetry	0.0008875
288.31 K, 348700 kPa, Bellows volumetry	0.0008793
288.32 K, 100 kPa, Vibrating tube method	0.0009586
288.33 K, 49800 kPa, Bellows volumetry	0.0009434
288.33 K, 249400 kPa, Bellows volumetry	0.0008969
288.35 K, 350000 kPa, Bellows volumetry	0.0008796
288.36 K, 299200 kPa, Bellows volumetry	0.0008882
289.16 K, 100 kPa, Vibrating tube method	0.0009591
290.16 K, 100 kPa, Vibrating tube method	0.0009597
291.15 K, 100 kPa, Vibrating tube method	0.0009603
292.15 K, 100 kPa, Vibrating tube method	0.000961
293.15 K, 100 kPa, Vibrating tube method	0.0009616
294.15 K, 100 kPa, Vibrating tube method	0.0009622
295.15 K, 100 kPa, Vibrating tube method	0.0009628
296.16 K, 100 kPa, Vibrating tube method	0.0009634
297.16 K, 100 kPa, Vibrating tube method	0.0009641
298.16 K, 100 kPa, Vibrating tube method	0.0009647
299.16 K, 100 kPa, Vibrating tube method	0.0009653
300.16 K, 100 kPa, Vibrating tube method	0.000966
301.16 K, 100 kPa, Vibrating tube method	0.0009666
302.16 K, 100 kPa, Vibrating tube method	0.0009673
303.16 K, 100 kPa, Vibrating tube method	0.0009679
304.16 K, 100 kPa, Vibrating tube method	0.0009685
305.16 K, 100 kPa, Vibrating tube method	0.0009692
306.16 K, 100 kPa, Vibrating tube method	0.0009699
307.15 K, 100 kPa, Vibrating tube method	0.0009705
308.15 K, 100 kPa, Vibrating tube method	0.0009712
309.15 K, 100 kPa, Vibrating tube method	0.0009719
310.15 K, 100 kPa, Vibrating tube method	0.0009725
311.15 K, 100 kPa, Vibrating tube method	0.0009732
312.15 K, 100 kPa, Vibrating tube method	0.0009739
313.15 K, 100 kPa, Vibrating tube method	0.0009746
